Assay results as given in ChEMBL document CHEMBL3352746, “Synthesis and anticancer activity of quinopimaric and maleopimaric acids’ derivatives” (Bioorg Med Chem, 2014).

Key:
[1] = Antitumor activity against mouse CA-755 cells implanted in mouse assessed as tumor growth inhibition at 40 mg/kg, ip dosed daily for 5 days measured 12 days after treatment termination; type: functional; details: CA-755, ip, route intraperitoneal, read-out: TGI
[2] = tested on: ACHN; assay: Growth inhibition of human ACHN cells; type: functional
[3] = tested on: Mus musculus; assay: Toxicity in mouse P388 cells implanted mouse assessed as mean spleen weight at 10 mg/kg, ip dosed daily for 5 days administered 24 hrs after tumor implantation; type: organism-based; design: dose 10 mg/kg, route intraperitoneal; details: in vivo
[4] = tested on: A549; assay: Growth inhibition of human A549/ATCC cells; type: functional
[5] = Antitumor activity against mouse Ehrlich carcinoma cells implanted in mouse assessed as increase in life span at 50 mg/kg, ip dosed daily for 5 days administered 48 hrs after tumor implantation; type: functional; details: route intraperitoneal
[6] = Growth inhibition of human HCC2998 cells; type: functional
[7] = Growth inhibition of human OVCAR3 cells; type: functional
[8] = Growth inhibition of human MOLT4 cells; type: functional
[9] = Antitumor activity against mouse AKATOL cells implanted in mouse assessed as tumor growth inhibition at 40 mg/kg, ip dosed daily for 5 days measured 19 days after treatment termination; type: functional; details: route intraperitoneal, read-out: TGI
[10] = tested on: DU-145; assay: Growth inhibition of human DU145 cells; type: functional
[11] = tested on: Mus musculus; assay: Toxicity in mouse Ehrlich carcinoma cells implanted mouse assessed as mean ascites volume at 50 mg/kg, ip dosed daily for 5 days administered 48 hrs after tumor implantation; type: organism-based; design: dose 50 mg/kg, route intraperitoneal; details: in vivo
[12] = Antitumor activity against mouse AKATOL cells implanted in mouse assessed as tumor growth inhibition at 40 mg/kg, ip dosed daily for 5 days measured 1 day after treatment termination; type: functional; details: route intraperitoneal, read-out: TGI
[13] = tested on: NCI-H226; assay: Growth inhibition of human NCI-H226 cells; type: functional
[14] = tested on: K562; assay: Growth inhibition of human K562 cells; type: functional
[15] = Growth inhibition of human NCI-ADR-RES cells; type: functional
[16] = tested on: P388; assay: Antitumor activity against mouse P388 cells implanted in mouse assessed as increase in life span at 10 mg/kg, ip dosed daily for 5 days administered 24 hrs after tumor implantation; type: functional; details: route intraperitoneal
[17] = Growth inhibition of human PC3 cells; type: functional
[18] = Growth inhibition of human OVCAR8 cells; type: functional, OVCAR-8
[19] = tested on: Mus musculus; assay: Toxicity in mouse Ehrlich carcinoma cells implanted mouse assessed as mean spleen weight at 50 mg/kg, ip dosed daily for 5 days administered 48 hrs after tumor implantation; type: organism-based; design: dose 50 mg/kg, route intraperitoneal; details: in vivo
[20] = tested on: Mus musculus; assay: Toxicity in mouse P388 cells implanted mouse assessed as mean ascites volume at 10 mg/kg, ip dosed daily for 5 days administered 24 hrs after tumor implantation; type: organism-based; design: dose 10 mg/kg, route intraperitoneal; details: in vivo
[21] = tested on: P388; assay: Antitumor activity against mouse P388 cells implanted in mouse assessed as increase in life span at 40 mg/kg, ip dosed daily for 5 days administered 24 hrs after tumor implantation; type: functional; details: route intraperitoneal
[22] = tested on: SR; assay: Growth inhibition of human SR cells; type: functional
[23] = Growth inhibition of human LOXIMVI cells; type: functional; details: LOX IMVI
[24] = Antitumor activity against mouse CA-755 cells implanted in mouse assessed as tumor growth inhibition at 40 mg/kg, ip dosed daily for 5 days measured 8 to 9 days after treatment termination; type: functional; details: CA-755, ip, route intraperitoneal, read-out: TGI
[25] = tested on: HT-29; assay: Growth inhibition of human HT-29 cells; type: functional
[26] = tested on: 786-0; assay: Growth inhibition of human 786-0 cells; type: functional
[27] = tested on: SK-MEL-5; assay: Growth inhibition of human SK-MEL-5 cells; type: functional
[28] = Antitumor activity against mouse AKATOL cells implanted in mouse assessed as tumor growth inhibition at 40 mg/kg, ip dosed daily for 5 days measured 12 days after treatment termination; type: functional; details: route intraperitoneal, read-out: TGI
[29] = tested on: Lewis lung carcinoma cell line; assay: Antitumor activity against mouse LLC cells implanted in mouse assessed as tumor growth inhibition at 40 mg/kg, ip dosed daily for 5 days measured 12 days after treatment termination; type: functional; details: route intraperitoneal, read-out: TGI
[30] = tested on: Mus musculus; assay: Toxicity in mouse P388 cells implanted mouse assessed as mouse mortality at 20 mg/kg, ip dosed daily for 5 days administered 24 hrs after tumor implantation; type: organism-based; design: dose 20 mg/kg, route intraperitoneal; details: in vivo
[31] = tested on: P388; assay: Antitumor activity against mouse P388 cells implanted in mouse assessed as increase in life span at 20 mg/kg, ip dosed daily for 5 days administered 24 hrs after tumor implantation; type: functional; details: route intraperitoneal
[32] = tested on: NCI-H460; assay: Growth inhibition of human NCI-H460 cells; type: functional
[33] = tested on: MDA-MB-468; assay: Growth inhibition of human MDA-MB-468 cells; type: functional
[34] = tested on: SF-268; assay: Growth inhibition of human SF268 cells; type: functional
[35] = tested on: NCI-H23; assay: Growth inhibition of human NCI-H23 cells; type: functional
[36] = Growth inhibition of human HCT15 cells; type: functional
[37] = tested on: NCI-H322M; assay: Growth inhibition of human NCI-H322M cells; type: functional
[38] = tested on: Mus musculus; assay: Toxicity in mouse P388 cells implanted mouse assessed as mean ascites volume at 60 mg/kg, ip dosed daily for 5 days administered 24 hrs after tumor implantation; type: organism-based; design: dose 60 mg/kg, route intraperitoneal; details: in vivo
[39] = tested on: U-251; assay: Growth inhibition of human U251 cells; type: functional
[40] = Antitumor activity against mouse CA-755 cells implanted in mouse assessed as increase in life span at 40 mg/kg, ip dosed daily for 5 days; type: functional; details: CA-755, ip, 120 h, route intraperitoneal
[41] = tested on: Lewis lung carcinoma cell line; assay: Antitumor activity against mouse LLC cells implanted in mouse assessed as tumor growth inhibition at 40 mg/kg, ip dosed daily for 5 days measured 8 to 9 days after treatment termination; type: functional; details: route intraperitoneal, read-out: TGI
[42] = read-out: pLC50 (the source's name) (converted)

With COC(=O)[C@]1(C)CCC[C@]2(C)[C@H]3C[C@H]4C(C(C)C)=C[C@]3(CC[C@H]21)[C@@H]1/C(=N/O)CC/C(=N\O)[C@@H]14 the inhibition in vivo at 40 mg/kg [1] was 35%, the GI50 [2] was 3.31 µM and the CC50 [2, 42] was 32.4 µM. It also gave a TGI ([2]; read-out: pTGI (converted)) of 10.5 µM, an Activity [3] of 95 mg and a GI50 ([4]; A549) of 3.09 µM. It also gave a CC50 ([4]; A549, read-out: pLC50 (converted)) greater than 100 µM, a TGI ([4]; A549, read-out: pTGI (converted)) of 10.5 µM and an ILS at 50 mg/kg [5] of -3%. For the same molecule, the GI50 ([6]; HCC 2998) was 2.75 µM, the CC50 ([6]; HCC 2998, read-out: pLC50 (the source's name) (converted)) was 33.1 µM and the TGI ([6]; HCC 2998, read-out: pTGI (converted)) was 6.46 µM. The GI50 ([7]; OVCAR-3) was 2.4 µM, the CC50 ([7]; OVCAR-3, read-out: pLC50 (the source's name) (converted)) was 15.8 µM and the TGI ([7]; OVCAR-3, read-out: pTGI (converted)) was 5.37 µM. The GI50 ([8]; MOLT-4) was 1.86 µM, the CC50 ([8]; MOLT-4, read-out: pLC50 (the source's name) (converted)) was 33.9 µM and the TGI ([8]; MOLT-4, read-out: pTGI (converted)) was 6.31 µM. The inhibition in vivo at 40 mg/kg [9] was 44%, the GI50 ([10]; DU-145) was 3.02 µM and the CC50 ([10]; DU-145, read-out: pLC50 (converted)) was greater than 100 µM. The TGI ([10]; DU-145, read-out: pTGI (converted)) was 15.8 µM, the Activity [11] was 0.63 mL and the inhibition in vivo at 40 mg/kg [12] was 57%. For the same molecule, the GI50 [13] was 7.94 µM, the CC50 [13, 42] was 85.1 µM and the TGI ([13]; read-out: pTGI (converted)) was 28.2 µM. For the same molecule, the GI50 ([14]; K562) was 3.24 µM, the CC50 ([14]; K562, read-out: pLC50 (converted)) was greater than 100 µM and the TGI ([14]; K562, read-out: pTGI (converted)) was 11.7 µM. It also gave a GI50 [15] of 3.16 µM, a CC50 ([15]; read-out: pLC50 (converted)) greater than 100 µM and a TGI ([15]; read-out: pTGI (converted)) of 9.55 µM. The ILS at 10 mg/kg [16] was -4%, the GI50 ([17]; PC-3) was 4.37 µM and the CC50 ([17]; PC-3, read-out: pLC50 (the source's name) (converted)) was 45.7 µM. It also gave a TGI ([17]; PC-3, read-out: pTGI (converted)) of 15.1 µM, a GI50 ([18]; OVCAR-8) of 3.24 µM and a CC50 ([18]; OVCAR-8, read-out: pLC50 (converted)) greater than 100 µM. The TGI ([18]; OVCAR-8, read-out: pTGI (converted)) was 12.6 µM, the Activity [19] was 104 mg and the Activity [20] was 1.3 mL. The ILS at 40 mg/kg [21] was -7%, the GI50 [22] was 2 µM and the CC50 [22, 42] was 25.1 µM. It also gave a TGI ([22]; read-out: pTGI (converted)) of 4.79 µM, a GI50 [23] of 2 µM and a CC50 [23, 42] of 7.76 µM. It also gave a TGI ([23]; read-out: pTGI (converted)) of 3.98 µM, an inhibition in vivo at 40 mg/kg [24] of 52% and a GI50 [25] of 2.69 µM. The CC50 [25, 42] was 52.5 µM, the TGI ([25]; read-out: pTGI (converted)) was 7.94 µM and the GI50 [26] was 5.75 µM. The CC50 [26, 42] was 53.7 µM, the TGI ([26]; read-out: pTGI (converted)) was 19.5 µM and the GI50 [27] was 3.09 µM. The CC50 [27, 42] was 36.3 µM, the TGI ([27]; read-out: pTGI (converted)) was 11.5 µM and the inhibition in vivo at 40 mg/kg [28] was 34%. The inhibition in vivo at 40 mg/kg [29] was 30%, the Activity [30] was “Non-toxic” and the ILS at 20 mg/kg [31] was -4%. It also gave a GI50 [32] of 2.29 µM, a CC50 [32, 42] of 46.8 µM and a TGI ([32]; read-out: pTGI) of 5.25 µM. It also gave a GI50 [33] of 4.68 µM, a CC50 [33, 42] of 64.6 µM and a TGI ([33]; read-out: pTGI (converted)) of 20 µM. The GI50 [34] was 4.37 µM, the CC50 [34, 42] was 55 µM and the TGI ([34]; read-out: pTGI (converted)) was 17 µM. It also gave a GI50 [35] of 3.72 µM, a CC50 [35, 42] of 93.3 µM and a TGI ([35]; read-out: pTGI (converted)) of 15.8 µM. The GI50 ([36]; HCT-15) was 3.39 µM, the CC50 ([36]; HCT-15, read-out: pLC50 (the source's name) (converted)) was 39.8 µM and the TGI ([36]; HCT-15, read-out: pTGI (converted)) was 12.9 µM. The GI50 [37] was 2.69 µM, the CC50 [37, 42] was 20.9 µM and the TGI ([37]; read-out: pTGI (converted)) was 6.17 µM. The Activity [38] was 0.6 mL, the GI50 [39] was 4.07 µM and the CC50 [39, 42] was 39.8 µM. The TGI ([39]; read-out: pTGI (converted)) was 15.1 µM, the ILS at 40 mg/kg [40] was 11% and the inhibition in vivo at 40 mg/kg [41] was 20%.
